Like-named read-outs stand apart in the source and are kept apart here.
What was measured:
in vitro = settings: human
human α-coronavirus 229E = test: Viral inhibition (CPE / cell viability readout) in 16HBE cells infected by α-coronavirus 229E; format: cell-based; settings: for EC50: 120 h, read-out: EC50 (concentration which results in 50% viral inhibition)
Method: The EC50 and CC50 of SR-31747 were determined in an in vitro model of infection by human α-coronavirus 229E.
Briefly, a dilution series of SR-31747 (8-point, half-log dose titration, 30 μM-10 nM) was added to 16HBE cells. Vehicle and positive control (remdesivir, 8-point, half-log dose titration, 20 μM-6.4 nM) wells were set up to control for any influence of the compounds alone on cell viability. Cells were visually inspected for the appearance of any cytopathic effects (CPE). A cell viability assay was performed once CPE was complete.
The readouts were: • EC50: The concentration which results in 50% viral inhibition, following the addition of compounds; • CC50: The concentration which results in 50% cell viability, following the addition of compounds; • Selectivity index: Calculated as CC50/EC50.
Protocol: • 1. 16HBE cells permissible to infection by α-coronavirus 229E were grown and seeded into 96-well plates to a confluency of 80-90%. • 2. The compounds SR-31747 and remdesivir (positive control) were serially diluted half-log into 8 concentrations in total and added to cells for 1 hour at 37° C. • 3. After 1 hour, α-coronavirus 229E was added at 100xTCID50. A mock infection of blank media was added to the uninfected controls. • 4. After infection, the virus/compound was removed and an overlay medium was added, with equivalent concentrations of the compounds. • 5. […] Once CPE was observed, supernatants were taken and stored at −80° C. • 7. A cell viability assay was then performed on all conditions, with cells receiving the treatment compared to the vehicle treated and uninfected controls. Calculations are as follows:
% viral inhibition=[(A-B)/(C-B)] x100, where: • A: mean optical density of test, B: mean optical density of virus controls, C: mean optical density of cell controls. • Negative values occur when A<B, due either to natural variation or compound toxicity.

SARS-CoV-2 [1] = test: microbe, parasite or virus in culture; format: cell-based; settings: Severe acute respiratory syndrome coronavirus 2; A549-ACE2 cells, MOI 0,1, 72 hours, viral replication inhibition; read-out: RTqPCR: IC50
SARS-CoV-2 [2] = test: SARS-CoV-2-infected golden hamster model of COVID-19; format: in vivo; settings: infected hamsters
From the text: SR-31747 was used freshly diluted in a diluent consisting of […], 5% ethanol and 5% tween-80.
24 male hamsters RjHan:AURA SPF were acclimated during 7 days and distributed in 4 groups of 6 hamsters each: • Group 1: Infected by SARS-CoV-2 and treated by SR-31747 • Group 2: Infected by SARS-CoV-2 and treated by diluent (negative control) • Group 3: Non-infected and treated by SR-31747 • Group 4: Non-infected and treated by diluent
On day 0, hamsters were infected intranasally by SARS-CoV-2 and received a first intraperitoneal injection of SR-31747 at 40 mg/kg.
On days 1, 2 and 3 the hamsters received an intraperitoneal injection of SR-31747 at 40 mg/kg. On day 4 sera and lungs from the hamsters were sampled.
From day 0 of day 4, the body temperature of the hamsters was measured at both flanks using a touchless infrared thermometer and a cumulative clinical score was determined (ruffled fur (no=0 or yes=1), slow movements (no=0, yes=1), apathy (no=0, yes=1), absence of rearing/exploration (no=0, yes=1)).
An olfactory test was conducted on day 3 preceded by a day of fasting. Briefly, cereals were buried in the litter of an individual cage and the latency to find the hidden cereals by the hamsters was measured.

| Structure (SMILES) | CC50 (in vitro) [nM] | EC50 (human α-coronavirus 229E; 16HBE) [nM] | EC50 (human α-coronavirus 229E; 16HBE cells, α-coronavirus 229E at 100xTCID50, about 5 days) [nM] | Selectivity index (CC50/EC50) (human α-coronavirus 229E; α-coronavirus 229E, 16HBE cells) | IC50 (SARS-CoV-2 [1]) [nM] | Cumulative clinical score (SARS-CoV-2 [2]; 40 mg/kg intraperitoneal days 0-3, day 4, p=0,009 Mann-Whitney test) | Olfactory test: latency to find hidden cereals (SARS-CoV-2 [2]; 40 mg/kg intraperitoneal, day 3) | Lung weight (SARS-CoV-2 [2]; 40 mg/kg intraperitoneal, day 4, increase due to infection) | Body temperature (SARS-CoV-2 [2]; 40 mg/kg intraperitoneal, days 2 and 4) |
| --- | --- | --- | --- | --- | --- | --- | --- | --- | --- |
| CCC(CC)COC(=O)[C@H](C)N[P@](=O)(OC[C@H]1O[C@@](C#N)(c2ccc3c(N)ncnn23)[C@H](O)[C@@H]1O)Oc1ccccc1 [Remdesivir, remdesivir, reference compound] | > 20000 | 340 |  |  |  |  |  |  |  |
| CCN(C/C=C\c1ccc(C2CCCCC2)c(Cl)c1)C1CCCCC1 [SR-31747, N-[(Z)-3-(3-chloro-4-cyclohexylphenyl)prop-2-enyl]-N-ethylcyclohexanamine] |  |  | 1360 | 5 | 2880 | significantly reduces | alleviates the olfactory dysfunction | significantly alleviated | significantly increases |

Source: patent US20230364033A1, “COMPOUNDS FOR TREATING VIRUS INFECTIONS” (Meletios Therapeutics, priority 2020, published 2023)
